The text below walks through data of ChEMBL document CHEMBL1156070, “Functional and biochemical analysis of a key series of ramoplanin analogues” (Bioorg Med Chem Lett, 2009).

One may read the MIC as the smallest concentration in the dilution series that meets the test's criterion for growth inhibition. High values mean a less susceptible organism, low ones a more susceptible organism. Usually Kd stands for the equilibrium constant for the complex coming apart. A low value points to tighter binding.

≈ marks a conversion by molar mass, not a printed value. Calls of active or inactive are those of the source. Where only a bound is given, the exact number is not on record here.

The subject of assay [1] is Staphylococcus aureus. The assay can be described thus: Antibacterial activity against Staphylococcus aureus ATCC 29213 after 24 hrs by microdilution assay. The class given is functional. Particulars: ATCC 29213, 24 h. (In general: Dilution methods test growth across graded concentrations, often in twofold steps.)
In assay [2] the test system is Escherichia coli. The assay can be described thus: Inhibition of Escherichia coli PBP1b-mediated lipid 2 incorporation into peptidoglycon at 6 uM.
Assay [3] is described as follows: Binding affinity to synthetic lipid 2 analogue fl-LPII.

On to `CC(C)C/C=C/C=C/C(=O)N[C@@H](CC(N)=O)C(=O)N[C@H]1CNC(=O)[C@H](c2ccc(O)c(Cl)c2)NC(=O)[C@@H](C)NC(=O)[C@H](CC(C)C)NC(=O)CNC(=O)[C@H](c2ccc(O)cc2)NC(=O)[C@@H]([C@@H](C)O)NC(=O)[C@H](c2ccc(O)cc2)NC(=O)[C@@H](CCCN)NC(=O)[C@H](Cc2ccccc2)NC(=O)[C@H]([C@H](C)O)NC(=O)[C@H](C)NC(=O)[C@H](c2ccc(O)cc2)NC(=O)[C@@H]([C@@H](C)O)NC(=O)[C@@H](CCCN)NC(=O)[C@@H](c2ccc(O)cc2)NC1=O`, for which the MIC in assay [1] came to 13 µg/mL (≈ 6.17 µM). Besides, in assay [2], the inhibition result is “inactive”. Moreover, binding in assay [3] was put at a Kd of 1200 nM.
In assay [1], `CC(C)C/C=C/C=C/C(=O)N[C@@H](CC(N)=O)C(=O)N[C@H]1CNC(=O)[C@H](c2ccc(O)c(Cl)c2)NC(=O)[C@@H](C)NC(=O)[C@H](CC(C)C)NC(=O)CNC(=O)[C@H](c2ccc(O)cc2)NC(=O)[C@@H]([C@@H](C)O)NC(=O)[C@H](c2ccc(O)cc2)NC(=O)[C@@H](CCCN)NC(=O)[C@H](Cc2ccccc2)NC(=O)[C@H]([C@H](C)O)NC(=O)[C@@H](c2ccc(O)cc2)NC(=O)[C@H](c2ccc(O)cc2)NC(=O)[C@@H]([C@@H](C)O)NC(=O)[C@@H](CCCN)NC(=O)[C@H](C)NC1=O` registered an MIC of 13 µg/mL (≈ 6.17 µM). The inhibition result in assay [2] is “Active”.
As to `CC(C)C/C=C/C=C/C(=O)N[C@@H](CC(N)=O)C(=O)N[C@H]1CNC(=O)[C@H](c2ccc(O)c(Cl)c2)NC(=O)[C@@H](C)NC(=O)[C@H](CC(C)C)NC(=O)CNC(=O)[C@H](c2ccc(O)cc2)NC(=O)[C@@H]([C@@H](C)O)NC(=O)[C@H](c2ccc(O)cc2)NC(=O)[C@@H](CCCN)NC(=O)[C@H](Cc2ccccc2)NC(=O)[C@H](C)NC(=O)[C@@H](c2ccc(O)cc2)NC(=O)[C@H](c2ccc(O)cc2)NC(=O)[C@@H]([C@@H](C)O)NC(=O)[C@@H](CCCN)NC(=O)[C@@H](c2ccc(O)cc2)NC1=O`, in assay [1], the MIC turned out to be 38 µg/mL (≈ 17.6 µM). The inhibition result in assay [2] is “inactive”. In assay [3], this compound came in with a Kd of 8700 nM.
The like results for `CC(C)C/C=C/C=C/C(=O)N[C@@H](CC(N)=O)C(=O)N[C@@H]1C(=O)N[C@H](c2ccc(O)cc2)C(=O)N[C@H](CCCN)C(=O)N[C@H]([C@@H](C)O)C(=O)N[C@@H](c2ccc(O)cc2)C(=O)N[C@H](c2ccc(O)cc2)C(=O)N[C@@H]([C@H](C)O)C(=O)N[C@@H](Cc2ccccc2)C(=O)N[C@H](CCCN)C(=O)N[C@@H](c2ccc(O)cc2)C(=O)N[C@H]([C@@H](C)O)C(=O)N[C@@H](c2ccc(O)cc2)C(=O)NCC(=O)N[C@@H](CC(C)C)C(=O)N[C@H](C)C(=O)N[C@@H](c2ccc(O)c(Cl)c2)C(=O)O[C@@H]1C(N)=O` [RAMOPLANIN AGLYCON] were, in that order, 0.4 µg/mL (≈ 0.179 µM), “Active” and 40 nM.
`CC(C)C/C=C/C=C/C(=O)N[C@@H](CC(N)=O)C(=O)N[C@H]1CNC(=O)[C@H](c2ccc(O)c(Cl)c2)NC(=O)[C@@H](C)NC(=O)[C@H](CC(C)C)NC(=O)CNC(=O)[C@H](c2ccc(O)cc2)NC(=O)[C@@H]([C@@H](C)O)NC(=O)[C@H](c2ccc(O)cc2)NC(=O)[C@@H](CCCN)NC(=O)[C@H](Cc2ccccc2)NC(=O)[C@H]([C@H](C)O)NC(=O)[C@@H](c2ccc(O)cc2)NC(=O)[C@H](c2ccc(O)cc2)NC(=O)[C@@H]([C@@H](C)O)NC(=O)[C@H](C)NC(=O)[C@@H](c2ccc(O)cc2)NC1=O` returned an MIC in assay [1] of 31 µg/mL (≈ 14.5 µM). In addition, the inhibition result in assay [2] was “inactive”. Besides, in assay [3], the affinity, expressed as Kd, was 4300 nM.
Turning to `CC(C)C/C=C/C=C/C(=O)N[C@@H](CC(N)=O)C(=O)N[C@H]1CNC(=O)[C@H](c2ccc(O)c(Cl)c2)NC(=O)[C@@H](C)NC(=O)[C@H](CC(C)C)NC(=O)CNC(=O)[C@H](c2ccc(O)cc2)NC(=O)[C@@H]([C@@H](C)O)NC(=O)[C@H](c2ccc(O)cc2)NC(=O)[C@@H](CCCN)NC(=O)[C@H](Cc2ccccc2)NC(=O)[C@H]([C@H](C)O)NC(=O)[C@@H](c2ccc(O)cc2)NC(=O)[C@H](c2ccc(O)cc2)NC(=O)[C@@H](C)NC(=O)[C@@H](CCCN)NC(=O)[C@@H](c2ccc(O)cc2)NC1=O`, the lowest concentration to inhibit growth in assay [1] (MIC) was 2.4 µg/mL (≈ 1.11 µM). Further, the inhibition result in assay [2] is “Active”. The compound further registered a Kd in assay [3] of 447 nM.
The like results for `CC(C)C/C=C/C=C/C(=O)N[C@@H](CC(N)=O)C(=O)N[C@H]1CNC(=O)[C@H](c2ccc(O)c(Cl)c2)NC(=O)[C@@H](C)NC(=O)[C@H](CC(C)C)NC(=O)CNC(=O)[C@H](c2ccc(O)cc2)NC(=O)[C@H](C)NC(=O)[C@H](c2ccc(O)cc2)NC(=O)[C@@H](CCCN)NC(=O)[C@H](Cc2ccccc2)NC(=O)[C@H]([C@H](C)O)NC(=O)[C@@H](c2ccc(O)cc2)NC(=O)[C@H](c2ccc(O)cc2)NC(=O)[C@@H]([C@@H](C)O)NC(=O)[C@@H](CCCN)NC(=O)[C@@H](c2ccc(O)cc2)NC1=O` were, in that order, 33 µg/mL (≈ 15.3 µM), “inactive” and 5400 nM.
In the case of `CC(C)C/C=C/C=C/C(=O)N[C@@H](CC(N)=O)C(=O)N[C@H]1CNC(=O)[C@H](c2ccc(O)c(Cl)c2)NC(=O)[C@@H](C)NC(=O)[C@H](CC(C)C)NC(=O)CNC(=O)[C@H](c2ccc(O)cc2)NC(=O)[C@@H]([C@@H](C)O)NC(=O)[C@H](c2ccc(O)cc2)NC(=O)C(C)NC(=O)[C@H](Cc2ccccc2)NC(=O)[C@H]([C@H](C)O)NC(=O)[C@@H](c2ccc(O)cc2)NC(=O)[C@H](c2ccc(O)cc2)NC(=O)[C@@H]([C@@H](C)O)NC(=O)[C@@H](CCCN)NC(=O)[C@@H](c2ccc(O)cc2)NC1=O` (single isomer, unassigned), in assay [1], the MIC is over 50 µg/mL. For the same compound, in assay [2], the inhibition entry was “inactive”. The same compound returned a Kd in assay [3] of 6500 nM.
For `CC(C)C/C=C/C=C/C(=O)N[C@@H](CC(N)=O)C(=O)N[C@H]1CNC(=O)[C@H](c2ccc(O)c(Cl)c2)NC(=O)[C@@H](C)NC(=O)[C@H](CC(C)C)NC(=O)CNC(=O)[C@H](c2ccc(O)cc2)NC(=O)[C@@H]([C@@H](C)O)NC(=O)[C@H](C)NC(=O)[C@@H](CCCN)NC(=O)[C@H](Cc2ccccc2)NC(=O)[C@H]([C@H](C)O)NC(=O)[C@@H](c2ccc(O)cc2)NC(=O)[C@H](c2ccc(O)cc2)NC(=O)[C@@H]([C@@H](C)O)NC(=O)[C@@H](CCCN)NC(=O)[C@@H](c2ccc(O)cc2)NC1=O`, inhibition of growth in assay [1] (MIC) required 6.3 µg/mL (≈ 2.99 µM). Further, the inhibition entry in assay [2] was “inactive”. Besides, the affinity in assay [3], expressed as Kd, was 6300 nM.
The matching figures for `CC(C)C/C=C/C=C/C(=O)N[C@@H](CC(N)=O)C(=O)N[C@H]1CNC(=O)[C@H](c2ccc(O)c(Cl)c2)NC(=O)[C@@H](C)NC(=O)[C@H](CC(C)C)NC(=O)CNC(=O)[C@H](c2ccc(O)cc2)NC(=O)[C@@H]([C@@H](C)O)NC(=O)[C@H](c2ccc(O)cc2)NC(=O)[C@@H](CCCN)NC(=O)C(C)NC(=O)[C@H]([C@H](C)O)NC(=O)[C@@H](c2ccc(O)cc2)NC(=O)[C@H](c2ccc(O)cc2)NC(=O)[C@@H]([C@@H](C)O)NC(=O)[C@@H](CCCN)NC(=O)[C@@H](c2ccc(O)cc2)NC1=O` (single isomer, unassigned): 1.6 µg/mL (≈ 0.758 µM), “Active” and 383 nM.
In assay [1], `CC(C)C/C=C/C=C/C(=O)N[C@@H](CC(N)=O)C(=O)N[C@H]1CNC(=O)[C@H](c2ccc(O)c(Cl)c2)NC(=O)[C@@H](C)NC(=O)[C@H](CC(C)C)NC(=O)CNC(=O)[C@H](c2ccc(O)cc2)NC(=O)[C@@H]([C@@H](C)O)NC(=O)[C@H](c2ccc(O)cc2)NC(=O)[C@@H](CCCN)NC(=O)[C@H](Cc2ccccc2)NC(=O)[C@H]([C@H](C)O)NC(=O)[C@@H](c2ccc(O)cc2)NC(=O)[C@H](c2ccc(O)cc2)NC(=O)[C@@H]([C@@H](C)O)NC(=O)[C@@H](CCCN)NC(=O)[C@@H](c2ccc(O)cc2)NC1=O` came in with an MIC of 0.4 µg/mL (≈ 0.183 µM). The inhibition result in assay [2] is “Active”. Moreover, the Kd in assay [3] turned out to be 33 nM.
As for `CC(C)C/C=C/C=C/C(=O)N[C@@H](CC(N)=O)C(=O)N[C@H]1CNC(=O)[C@H](c2ccc(O)c(Cl)c2)NC(=O)[C@@H](C)NC(=O)[C@H](CC(C)C)NC(=O)CNC(=O)[C@H](c2ccc(O)cc2)NC(=O)[C@@H]([C@@H](C)O)NC(=O)[C@H](c2ccc(O)cc2)NC(=O)[C@@H](CCCN)NC(=O)[C@H](Cc2ccccc2)NC(=O)[C@H]([C@H](C)O)NC(=O)[C@@H](c2ccc(O)cc2)NC(=O)[C@H](C)NC(=O)[C@@H]([C@@H](C)O)NC(=O)[C@@H](CCCN)NC(=O)[C@@H](c2ccc(O)cc2)NC1=O`, the MIC in assay [1] came out at 1.6 µg/mL (≈ 0.759 µM). Moreover, the inhibition result in assay [2] was “Active”. Moreover, binding in assay [3] was put at a Kd of 378 nM.
